System: Eastern subterranean termites
Assay: In-field marking and control, bait at infested trees, site 3
Assay type: in vivo
Settings: Site 3 (Ligastrum), 250 ppm bait
Description: Formosan subterranean termite and native subterranean termite infested trees (Water Oaks and Legastrums) in New Orleans, La. were chosen for this study. Three sites were selected located at the Southern Regional Research Center campus. Site 1 was located near the service building next to an old water oak tree, site 2 was located in the compound area near ligastrum trees, and site 3 near ligastrum trees outside the compound area. Sites 1 and 2 were active with Formosan subterranean termites and site 3 with Eastern subterranean termites.
The colored bait matrix at 250 ppm was encapsulated as described above and placed directly in the base of the trees where termites were foraging, making sure that the encapsulated colored bait matrix was covered with soil or with a piece of wood or brick on top of it to prevent desiccation. The bait was periodically inspected for consumption and termite activity. The field study started in early August and was completed by the end of the following June. During winter (December-February) termite activity decreased considerably, but by April termite activity and foraging resumed and the blue colored matrix was replaced by bait formulation containing 250 ppm of chitin synthesis inhibitors to kill the colonies. Diflubenzuron was used in 2 of the sites and chlorfluazuron was used in the remaining site.

CCCCC(CC)CNc1ccc(NCC(CC)CCCC)c2c1C(=O)c1ccccc1C2=O (stereo not shown) [Calco oil blue V, 9,10-anthracenedione, 1,4-bis[(2-ethylhexyl)amino]]
Bait consumption (day 7): 0 g
Bait consumption (day 14): 200 g
Bait consumption (day 21): 150 g
Bait consumption (day 27): 150 g
Bait consumption (day 46): 100 g
Bait consumption (day 56): 0 g
Bait consumption (day 73): 0 g
Bait consumption (day 83): 0 g
Bait consumption (day 102): 0 g
Bait consumption (day 159): 0 g
Bait consumption (day 221): 0 g
Bait consumption (day 251): 0 g
Bait consumption (day 281): 0 g

— patent US7628979B1, “Use of calco oil blue V in bait formulations for marking and controlling subterranean termites” (The United States of America as represented by the …, priority 2005, dated 2009)
